# Results as given in PubChem BioAssay AID588339 (The Scripps Research Institute Molecular Screening Center, 2011).
# Active and inactive are the calls of the source. No rule for the calls is given here.
# System: TLR9-MyD88 CHO cells, cytotoxicity, luminescence
# Test: CHO cell viability loss, potency, luminescence, cytotoxicity control for TLR9-MyD88 binding inhibitor project, dose response (AID 588339)
row,SMILES,IC50
1,COc1cc(/C=C/C(=O)/C=C(O)/C=C/c2ccc(O)c(OC)c2)ccc1O,34600 nM (inactive)
2,C[CH2][Hg][S]c1ccccc1C(=O)O,921 nM
